# Measured values as given in patent publication US9284317B2, “Substituted imidazo[1,2-a]pyrazines as MPS-1 inhibitors” (Bayer Intellectual Property GmbH, priority 2010, dated 2016).
# Target: human kinase Mps-1 (N-terminally GST-tagged human full length recombinant Mps-1 kinase) (Homo sapiens (Human), UniProt P33981)
# Test: Mps-1 Kinase Assay (TR-FRET)
# Format: biochemical
# Settings: 10 μM ATP, 1 μM biotinylated peptide substrate, 60 min at 22° C., read-out: Mps1 IC50
# Experimental: The human kinase Mps-1 phosphorylates a biotinylated substrate peptide. Detection of the phosphorylated product is achieved by time-resolved fluorescence resonance energy transfer (TR-FRET) from Europium-labelled anti-phospho-Serine/Threonine antibody as donor to streptavidin labelled with cross-linked allophycocyanin (SA-XLent) as acceptor. Compounds are tested for their inhibition of the kinase activity.
# N-terminally GST-tagged human full length recombinant Mps-1 kinase (purchased from Invitrogen, Karslruhe, Germany, cat. no PV4071) was used. As substrate for the kinase reaction a biotinylated peptide of the amino-acid sequence […] (C-terminus in amide form, purchased from Biosynthan GmbH, Berlin) was used.
# The concentration of Mps-1 in the assay was adjusted to the activity of the enzyme lot and was chosen appropriate to have the assay in the linear range, typical enzyme concentrations were in the range of about 1 nM (final conc. in the 5 μl assay volume).
# The resulting mixture was incubated 1 h at 22° C. to allow the binding of the phosphorylated peptide to the anti-phospho(Ser/Thr)-Europium-antibody. Subsequently the amount of phosphorylated substrate was evaluated by measurement of the resonance energy transfer from the Europium-labelled anti-phospho(Ser/Thr) antibody to the Streptavidin-XLent.
# Chain of human kinase Mps-1 (N-terminally GST-tagged human full length recombinant Mps-1 kinase) (P33981 whole entry): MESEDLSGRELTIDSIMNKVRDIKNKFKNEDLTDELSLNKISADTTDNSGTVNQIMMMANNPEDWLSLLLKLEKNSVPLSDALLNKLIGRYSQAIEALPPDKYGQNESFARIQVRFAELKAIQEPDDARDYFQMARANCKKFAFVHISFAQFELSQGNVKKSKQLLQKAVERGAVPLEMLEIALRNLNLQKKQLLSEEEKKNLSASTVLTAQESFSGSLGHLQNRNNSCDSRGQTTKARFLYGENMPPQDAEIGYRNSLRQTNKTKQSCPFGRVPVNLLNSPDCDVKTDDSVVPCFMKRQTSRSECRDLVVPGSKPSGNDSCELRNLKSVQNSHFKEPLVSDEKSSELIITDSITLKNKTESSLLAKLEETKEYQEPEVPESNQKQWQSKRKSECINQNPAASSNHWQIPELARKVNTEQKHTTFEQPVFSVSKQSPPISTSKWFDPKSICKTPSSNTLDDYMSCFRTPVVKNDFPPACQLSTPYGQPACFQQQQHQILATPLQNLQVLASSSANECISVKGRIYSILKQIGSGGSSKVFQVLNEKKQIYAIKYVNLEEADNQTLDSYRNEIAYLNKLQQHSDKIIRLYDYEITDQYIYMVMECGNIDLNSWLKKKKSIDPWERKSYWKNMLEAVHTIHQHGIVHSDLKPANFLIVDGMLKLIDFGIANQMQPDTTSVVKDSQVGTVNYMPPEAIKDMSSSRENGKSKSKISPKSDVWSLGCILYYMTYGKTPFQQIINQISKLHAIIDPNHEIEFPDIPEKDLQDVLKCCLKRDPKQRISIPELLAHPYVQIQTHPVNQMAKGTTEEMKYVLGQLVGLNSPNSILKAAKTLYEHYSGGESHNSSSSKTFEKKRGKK
row,IC50,SMILES
1,0.0062 µM,"C/C=C/c1cn2c(-c3ccc(C(=O)NC4CC4)cc3)cnc2c(NCC(C)C)n1 [Example 1-1, N-cyclopropyl-4-{8-[(2-methylpropyl)amino]-6-[(1E)-prop-1-en-1-yl]imidazo[1,2-a]pyrazin-3-yl}benzamide]"
2,0.0071 µM,"COCc1cccc(-c2cn3c(-c4ccc(C(=O)NC5CC5)cc4)cnc3c(NCC(C)C)n2)c1 [Example 1-2, N-cyclopropyl-4-{6-[3-(methoxymethyl)phenyl]-8-[(2-methylpropyl)amino]imidazo[1,2-a]pyrazin-3-yl}benzamide]"
3,0.0042 µM,"CC(C)CNc1nc(C2=CCCCC2)cn2c(-c3ccc(C(=O)NC4CC4)cc3)cnc12 [Example 1-3, 4-{6-(cyclohex-1-en-1-yl)-8-[(2-methylpropyl)amino]imidazo[1,2-a]pyrazin-3-yl}-N-cyclopropylbenzamide]"
4,0.0019 µM,"C/C=C(/C)c1cn2c(-c3ccc(C(=O)NC4CC4)cc3)cnc2c(NCC(C)C)n1 [Example 1-4, 4-{6-[(2Z)-but-2-en-2-yl]-8-[(2-methylpropyl)amino]imidazo[1,2-a]pyrazin-3-yl}-N-cyclopropylbenzamide]"
5,0.0062 µM,"CC(C)CNc1nc(C2CC2)cn2c(-c3ccc(C(=O)NC4CC4)cc3)cnc12 [Example 1-5, N-cyclopropyl-4-{6-cyclopropyl-8-[(2-methylpropyl)amino]imidazo[1,2-a]pyrazin-3-yl}benzamide]"
6,0.0028 µM,"CC(C)CNc1nc(C2CC=CCC2)cn2c(-c3ccc(C(=O)NC4CC4)cc3)cnc12 (centres unmarked) [Example 1-6, 4-{6-(cyclohex-3-en-1-yl)-8-[(2-methylpropyl)amino]imidazo[1,2-a]pyrazin-3-yl}-N-cyclopropylbenzamide]"
7,0.0041 µM,"C/C=C(\C)c1cn2c(-c3ccc(C(=O)NC4CC4)cc3)cnc2c(NCC(C)C)n1 [Example 1-7, 4-{6-[(2E)-but-2-en-2-yl]-8-[(2-methylpropyl)amino]imidazo[1,2-a]pyrazin-3-yl}-N-cyclopropylbenzamide]"
8,0.0058 µM,"C=C(C)c1cn2c(-c3ccc(C(=O)NC4CC4)cc3)cnc2c(NCC(C)C)n1 [Example 1-9, N-cyclopropyl-4-{8-[(2-methylpropyl)amino]-6-(prop-1-en-2-yl)imidazo[1,2-a]pyrazin-3-yl}benzamide]"
9,0.0723 µM,"C/C=C/c1cn2c(-c3ccc(C(=O)NC4CC4)c(Cl)c3)cnc2c(NCC(C)C)n1 [Example 1-10, 2-chloro-N-cyclopropyl-4-{8-[(2-methylpropyl)amino]-6-[(1E)-prop-1-en-1-yl]imidazo[1,2-a]pyrazin-3-yl}benzamide]"
10,0.0343 µM,"C/C=C/c1cn2c(-c3ccc(C(=O)NC4CC4)c(Cl)c3)cnc2c(NCCC(F)(F)F)n1 [Example 1-11, 2-chloro-N-cyclopropyl-4-{6-[(1E)-prop-1-en-1-yl]-8-[(3,3,3-trifluoropropyl)amino]imidazo[1,2-a]pyrazin-3-yl}benzamide]"
11,0.132 µM,"C/C=C/c1cn2c(-c3ccc(C(=O)NC4CC4)c(Cl)c3)cnc2c(NCC(C)(C)O)n1 [Example 1-12, 2-chloro-N-cyclopropyl-4-{8-[(2-hydroxy-2-methylpropyl)amino]-6-[(1E)-prop-1-en-1-yl]imidazo[1,2-a]pyrazin-3-yl}benzamide]"
12,0.0706 µM,"C/C=C/c1cn2c(-c3ccc(C(=O)NC4CC4)c(Cl)c3)cnc2c(NCc2ccnn2C)n1 [Example 1-13, 2-chloro-N-cyclopropyl-4-(8-{[(1-methyl-1H-pyrazol-5-yl)methyl]amino}-6-[(1E)-prop-1-en-1-yl]imidazo[1,2-a]pyrazin-3-yl)benzamide]"
13,0.0387 µM,"C/C=C/c1cn2c(-c3ccc(C(=O)NC4CC4)c(F)c3)cnc2c(NCC(C)C)n1 [Example 1-14, N-cyclopropyl-2-fluoro-4-{8-[(2-methylpropyl)amino]-6-[(1E)-prop-1-en-1-yl]imidazo[1,2-a]pyrazin-3-yl}benzamide]"
14,0.0154 µM,"C/C=C/c1cn2c(-c3ccc(C(=O)NC4CC4)c(F)c3)cnc2c(NCCC(F)(F)F)n1 [Example 1-15, N-cyclopropyl-2-fluoro-4-{6-[(1E)-prop-1-en-1-yl]-8-[(3,3,3-trifluoropropyl)amino]imidazo[1,2-a]pyrazin-3-yl}benzamide]"
15,0.0465 µM,"C/C=C/c1cn2c(-c3ccc(C(=O)NC4CC4)c(F)c3)cnc2c(NCC(C)(C)O)n1 [Example 1-16, N-cyclopropyl-2-fluoro-4-{8-[(2-hydroxy-2-methylpropyl)amino]-6-[(1E)-prop-1-en-1-yl]imidazo[1,2-a]pyrazin-3-yl}benzamide]"
16,0.0992 µM,"C/C=C/c1cn2c(-c3ccc(C(=O)NC4CC4)c(F)c3)cnc2c(NCC2CCCO2)n1 (centres unmarked) [Example 1-17, N-cyclopropyl-2-fluoro-4-{6-[(1E)-prop-1-en-1-yl]-8-[(tetrahydrofuran-2-ylmethyl)amino]imidazo[1,2-a]pyrazin-3-yl}benzamide]"
17,0.0319 µM,"C/C=C/c1cn2c(-c3ccc(C(=O)NC4CC4)c(F)c3)cnc2c(NCc2ccnn2C)n1 [Example 1-18, N-cyclopropyl-2-fluoro-4-(8-{[(1-methyl-1H-pyrazol-5-yl)methyl]amino}-6-[(1E)-prop-1-en-1-yl]imidazo[1,2-a]pyrazin-3-yl)benzamide]"
18,0.0214 µM,"C=Cc1ccc(-c2cn3c(-c4ccc(C(=O)NC5CC5)cc4)cnc3c(NCC(C)C)n2)cc1 [Example 1-20, N-cyclopropyl-4-{6-(4-ethenylphenyl)-8-[(2-methylpropyl)amino]imidazo[1,2-a]pyrazin-3-yl}benzamide]"
19,0.0083 µM,"CC(C)(C)OC(=O)NCCCNc1nc(-c2ccncc2)cn2c(-c3ccc(C(=O)NC4CC4)cc3)cnc12 [Example 2-1, tert-butyl [3-({3-[4-(cyclopropylcarbamoyl)phenyl]-6-(pyridin-4-yl)imidazo[1,2-a]pyrazin-8-yl}amino)propyl]carbamate]"
20,0.0946 µM,"CC(C)(C)OC(=O)NCC#CCCNc1nc(-c2ccccc2)cn2c(-c3ccc(C(=O)NC4CC4)cc3)cnc12 [Example 2-2, tert-Butyl [5-({3-[4-(cyclopropylcarbamoyl)phenyl]-6-phenylimidazo[1,2-a]pyrazin-8-yl}amino)pent-2-yn-1-yl]carbamate]"
21,0.064 µM,"CC(C)(C)OC(=O)NC/C=C/CCNc1nc(-c2ccccc2)cn2c(-c3ccc(C(=O)NC4CC4)cc3)cnc12 [Example 2-3, tert-Butyl [(2E)-5-({3-[4-(cyclopropylcarbamoyl)phenyl]-6-phenylimidazo[1,2-a]pyrazin-8-yl}amino)pent-2-en-1-yl]carbamate]"
22,0.0123 µM,"CC(C)(C)OC(=O)NC/C=C\CCNc1nc(-c2ccccc2)cn2c(-c3ccc(C(=O)NC4CC4)cc3)cnc12 [Example 2-4, tert-Butyl [(2Z)-5-({3-[4-(cyclopropylcarbamoyl)phenyl]-6-phenylimidazo[1,2-a]pyrazin-8-yl}amino)pent-2-en-1-yl]carbamate]"
23,0.0126 µM,"CC(C)CNc1nc(C2CCCCC2)cn2c(-c3ccc(C(=O)NC4CC4)cc3)cnc12 [Example 4-1, 4-{6-cyclohexyl-8-[(2-methylpropyl)amino]imidazo[1,2-a]pyrazin-3-yl}-N-cyclopropylbenzamide]"
24,0.0061 µM,"CC(C)CNc1nc(C2CCCC2)cn2c(-c3ccc(C(=O)NC4CC4)cc3)cnc12 [Example 4-2, 4-{6-cyclopentyl-8-[(2-methylpropyl)amino]imidazo[1,2-a]pyrazin-3-yl}-N-cyclopropylbenzamide]"
25,0.0019 µM,"CC(C)CNc1nc(/C=C2\CCC(=O)N2C)cn2c(-c3ccc(C(=O)NC4CC4)cc3)cnc12 [Example 5-1, N-cyclopropyl-4-{6-[(E)-(1-methyl-5-oxopyrrolidin-2-ylidene)methyl]-8-[(2-methylpropyl)amino]imidazo[1,2-a]pyrazin-3-yl}benzamide]"
26,0.0104 µM,"CC(C)CNc1nc(NC(=O)c2ccccn2)cn2c(-c3ccc(C(=O)NC4CC4)cc3)cnc12 [Example 6-1, N-{3-[4-(cyclopropylcarbamoyl)phenyl]-8-[(2-methylpropyl)amino]imidazo[1,2-a]pyrazin-6-yl}pyridine-2-carboxamide]"
